In article PMC8501799, “Constitutive signal bias mediated by the human GHRHR splice variant 1” (Proceedings of the National Academy of Sciences of the …, 2021):

How the values were obtained:
Experiment in all cases: cAMP accumulation
SV1 K66A = assay type: cell-based, human; settings: Table S4, mean ± SEM
Method: (§1) GHRH-stimulated cAMP accumulation was measured by a LANCE Ultra cAMP kit (PerkinElmer). Briefly, HEK293T cells (24 h after transfection with SV1 or GHRHR) or prostate cancer cells were digested by 0.2% (wt/vol) EDTA and washed once with Dulbecco’s phosphate-buffered saline (PBS). Cells were then resuspended with stimulation buffer (Hanks’ balanced salt solution [HBSS] supplemented with 5 mM HEPES, 0.5 mM IBMX, and 0.1% [wt/vol] bovine serum albumin [BSA], pH 7.4) to a density of 0.6 million cells per milliliter and added to 384-well white plates (3,000 cells per well). […] The reaction was stopped by adding 5 μL Eu-cAMP tracer and 5 μL ULight-anti-cAMP. After 1 h RT incubation, TR-FRET signals (excitation: 320 nm, emission: 615 and 665 nm) were measured by an Envision plate reader (PerkinElmer). cAMP concentrations were interpolated by a standard curve.
(§2) All functional study data were analyzed using Prism 7 (GraphPad) and presented as means ± SEM from at least three independent experiments. Concentration-response curves were evaluated with a three-parameter logistic equation. The significance was determined with either two-tailed Student’s t test or one-way ANOVA, and P < 0.05 is considered statistically significant.
(§3) Table S4. Effects of residue mutation in the ligand-binding pocket of SV1 on GHRH-induced cAMP […]
(§4) Mutant pEC50 Emax Cell surface expression ΔLog (τ/KA)
(§5) (% WT GHRHR) (% WT GHRHR) cAMP accumulation data were analyzed using a three-parameter logistic equation to determine pEC50 and Emax values. pEC50 is the negative logarithm of the molar concentration of agonist that induced half the maximal response. Emax for mutants is expressed as a percentage of the WT GHRHR. Data were analyzed by nonlinear regression using the operational model equation to determine t he logR values (logτ/KA, i.e., logarithm of the transduction ratio). τ is the effi cacy value of the agonist and was corrected by cell surface expression of the receptor. KA is dissociation constant. Changes in transduction ratio (ΔlogR) were calculated to determine the relative effectiveness of the mutants. All values are means ± S.E.M. of four independent experiments (n = 4) conducted in quadruplicate. Statistical analysis was carried out by comparing the control responses in the WT-SV1. *, P < 0.05, **, P < 0.01 and ***, P < 0.001, determined by one-way

SV1 Y69A = assay type: cell-based, human; settings: Table S4, mean ± SEM
Method: as §1, §2, §3, §4, §5

SV1 S145A = assay type: cell-based, human; settings: Table S4, mean ± SEM
Method: as §1, §2, §3, §4, §5

SV1 L290A = assay type: cell-based, human; settings: Table S4, mean ± SEM
Method: as §1, §2, §3, §4, §5

SV1 L294A = assay type: cell-based, human; settings: Table S4, mean ± SEM
Method: as §1, §2, §3, §4, §5

SV1 F62A = assay type: cell-based, human; settings: Table S4, mean ± SEM
Method: as §1, §2, §3, §4, §5

SV1 K118A = assay type: cell-based, human; settings: Table S4, mean ± SEM
Method: as §1, §2, §3, §4, §5

SV1 V65A = assay type: cell-based, human; settings: Table S4, mean ± SEM
Method: as §1, §2, §3, §4, §5

SV1 I225A = assay type: cell-based, human; settings: Table S4, mean ± SEM
Method: as §1, §2, §3, §4, §5

SV1 H146A = assay type: cell-based, human; settings: Table S4, mean ± SEM
Method: as §1, §2, §3, §4, §5

GHRHR F85A = target: T1, GHRHR F85A (Homo sapiens, UniProt Q02643, F85A); assay type: cell-based; settings: Table S2, mean ± SEM
T1 construct: expressed in transfected cells; host or cells: HEK293T
T1 sequence (Q02643 23-423 F85A): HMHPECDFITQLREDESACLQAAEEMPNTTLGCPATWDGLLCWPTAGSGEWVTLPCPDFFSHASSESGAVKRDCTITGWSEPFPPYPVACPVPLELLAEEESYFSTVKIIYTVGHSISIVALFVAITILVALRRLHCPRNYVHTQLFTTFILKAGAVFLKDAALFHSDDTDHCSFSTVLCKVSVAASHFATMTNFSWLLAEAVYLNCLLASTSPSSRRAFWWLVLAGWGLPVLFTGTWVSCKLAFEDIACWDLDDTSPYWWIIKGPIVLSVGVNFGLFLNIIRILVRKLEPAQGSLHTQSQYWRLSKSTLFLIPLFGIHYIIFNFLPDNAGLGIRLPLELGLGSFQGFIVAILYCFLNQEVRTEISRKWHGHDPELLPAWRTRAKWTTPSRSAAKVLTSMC
Method: as §1, §2
(§6) Table S2. Effects of residue mutation or truncation in the ECD of GHRHR on GHRH-induced cAMP […]
(§7) Mutant pEC50 Emax (% WT GHRHR) expression ΔLog (τ/KA) […]
as §5, with “cAMP” for “(% WT GHRHR) (% WT GHRHR) cAMP”, “at le ast three ind ep en dent” for “four independent”, “3-5)” for “4)”, “WT GHRHR.” for “WT-SV1. *, P < 0.05,”

GHRHR Δ62 = target: T2, GHRHR Δ62 (Homo sapiens, UniProt Q02643); assay type: cell-based; settings: Table S2, mean ± SEM
T2 construct: expressed in transfected cells; host or cells: HEK293T
T2 sequence (Q02643 63-423 limits assumed, stated change not applied): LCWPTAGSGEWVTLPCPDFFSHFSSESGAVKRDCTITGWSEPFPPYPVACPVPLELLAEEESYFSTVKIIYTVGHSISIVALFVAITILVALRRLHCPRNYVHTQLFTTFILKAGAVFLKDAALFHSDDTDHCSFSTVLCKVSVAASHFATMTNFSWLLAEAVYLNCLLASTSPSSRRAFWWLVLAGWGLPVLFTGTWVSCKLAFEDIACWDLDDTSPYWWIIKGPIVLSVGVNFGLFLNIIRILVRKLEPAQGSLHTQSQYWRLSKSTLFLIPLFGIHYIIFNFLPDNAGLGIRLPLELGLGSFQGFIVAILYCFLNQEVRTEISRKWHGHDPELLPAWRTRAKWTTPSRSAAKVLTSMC
Method: as §1, §2, §6, §7
as §5, with “cAMP” for “(% WT GHRHR) (% WT GHRHR) cAMP”, “at le ast three ind ep en dent” for “four independent”, “3-5)” for “4)”, “WT GHRHR.” for “WT-SV1. *, P < 0.05,”

GHRHR Δ89 = target: T3, GHRHR Δ89 (Homo sapiens, UniProt Q02643); assay type: cell-based
T3 construct: expressed in transfected cells; host or cells: HEK293T
T3 sequence (Q02643 90-423): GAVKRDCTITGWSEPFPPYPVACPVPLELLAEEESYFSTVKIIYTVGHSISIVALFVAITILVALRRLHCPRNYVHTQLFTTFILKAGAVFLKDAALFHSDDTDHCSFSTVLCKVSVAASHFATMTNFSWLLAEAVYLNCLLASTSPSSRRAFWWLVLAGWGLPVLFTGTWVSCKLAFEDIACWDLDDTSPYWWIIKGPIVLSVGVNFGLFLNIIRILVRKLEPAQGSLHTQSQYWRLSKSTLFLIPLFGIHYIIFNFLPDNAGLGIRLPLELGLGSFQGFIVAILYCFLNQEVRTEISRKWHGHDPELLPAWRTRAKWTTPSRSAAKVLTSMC
Method: as §1, §2, §6, §7
as §5, with “cAMP” for “(% WT GHRHR) (% WT GHRHR) cAMP”, “at le ast three ind ep en dent” for “four independent”, “3-5)” for “4)”, “WT GHRHR.” for “WT-SV1. *, P < 0.05,”

[1] = HEK293T, LANCE Ultra cAMP, 30 min RT, 0.5 mM IBMX, n = 4 in quadruplicate
[2] = HEK293T, n = 4 in quadruplicate
[3] = operational model, τ corrected by cell surface expression, n = 4
[4] = HEK-293T, HEK293T, n = 3-5 in quadruplicate
[5] = operational model, τ corrected by cell surface expression, relative to WT GHRHR

CC[C@H](C)[C@H](NC(=O)[C@H](C)NC(=O)[C@H](CC(=O)O)NC(=O)[C@H](C)NC(=O)[C@@H](N)Cc1ccc(O)cc1)C(=O)N[C@@H](Cc1ccccc1)C(=O)N[C@H](C(=O)N[C@@H](CC(N)=O)C(=O)N[C@@H](CO)C(=O)N[C@@H](Cc1ccc(O)cc1)C(=O)N[C@@H](CCCNC(=N)N)C(=O)N[C@@H](CCCCN)C(=O)N[C@H](C(=O)N[C@@H](CC(C)C)C(=O)NCC(=O)N[C@@H](CCC(N)=O)C(=O)N[C@@H](CC(C)C)C(=O)N[C@@H](CO)C(=O)N[C@@H](C)C(=O)N[C@@H](CCCNC(=N)N)C(=O)N[C@@H](CCCCN)C(=O)N[C@@H](CC(C)C)C(=O)N[C@@H](CC(C)C)C(=O)N[C@@H](CCC(N)=O)C(=O)N[C@@H](CC(=O)O)C(=O)N[C@H](C(=O)N[C@@H](CCSC)C(=O)N[C@@H](CO)C(=O)N[C@@H](CCCNC(=N)N)C(=O)N[C@@H](CCC(N)=O)C(=O)N[C@@H](CCC(N)=O)C(=O)NCC(=O)N[C@@H](CCC(=O)O)C(=O)N[C@@H](CO)C(=O)N[C@@H](CC(N)=O)C(=O)N[C@@H](CCC(N)=O)C(=O)N[C@@H](CCC(=O)O)C(=O)N[C@@H](CCCNC(=N)N)C(=O)NCC(=O)N[C@@H](C)C(=O)N[C@@H](CCCNC(=N)N)C(=O)N[C@@H](C)C(=O)N[C@@H](CCCNC(=N)N)C(=O)N[C@@H](CC(C)C)C(N)=O)[C@@H](C)CC)C(C)C)[C@@H](C)O [GHRH, growth hormone–releasing hormone]
pEC50 of cAMP accumulation (SV1 K66A; [1]): 5.60 ± 0.08 | Emax of cAMP accumulation (SV1 K66A; [2]): 106.82 ± 4.09 % WT GHRHR | ΔLog (τ/KA) (SV1 K66A; [3]): -4.02 ± 0.11 | pEC50 of cAMP accumulation (SV1 Y69A; [1]): 5.44 ± 0.09 | Emax of cAMP accumulation (SV1 Y69A; [2]): 104.75 ± 4.29 % WT GHRHR | ΔLog (τ/KA) (SV1 Y69A; [3]): -3.81 ± 0.10 | pEC50 of cAMP accumulation (SV1 S145A; [1]): 6.34 ± 0.09 | Emax of cAMP accumulation (SV1 S145A; [2]): 101.87 ± 3.50 % WT GHRHR | ΔLog (τ/KA) (SV1 S145A; [3]): -4.22 ± 0.14 | pEC50 of cAMP accumulation (SV1 L290A; [1]): 5.58 ± 0.08 | Emax of cAMP accumulation (SV1 L290A; [2]): 109.60 ± 3.90 % WT GHRHR | ΔLog (τ/KA) (SV1 L290A; [3]): -4.56 ± 0.09 | pEC50 of cAMP accumulation (SV1 L294A; [1]): 5.32 ± 0.10 | Emax of cAMP accumulation (SV1 L294A; [2]): 106.26 ± 5.25 % WT GHRHR | ΔLog (τ/KA) (SV1 L294A; [3]): -4.96 ± 0.12 | pEC50 of cAMP accumulation (SV1 F62A; [1]): 5.28 ± 0.08 | Emax of cAMP accumulation (SV1 F62A; [2]): 105.64 ± 4.54 % WT GHRHR | ΔLog (τ/KA) (SV1 F62A; [3]): -4.41 ± 0.14 | pEC50 of cAMP accumulation (SV1 K118A; [1]): 4.61 ± 0.12 | Emax of cAMP accumulation (SV1 K118A; [2]): 92.40 ± 7.25 % WT GHRHR | ΔLog (τ/KA) (SV1 K118A; [3]): -4.51 ± 0.13 | pEC50 of cAMP accumulation (SV1 V65A; [1]): 5.33 ± 0.09 | Emax of cAMP accumulation (SV1 V65A; [2]): 106.08 ± 4.91 % WT GHRHR | ΔLog (τ/KA) (SV1 V65A; [3]): -4.08 ± 0.12 | pEC50 of cAMP accumulation (SV1 I225A; [1]): 4.98 ± 0.12 | Emax of cAMP accumulation (SV1 I225A; [2]): 76.03 ± 5.48 % WT GHRHR | ΔLog (τ/KA) (SV1 I225A; [3]): -3.85 ± 0.13 | pEC50 of cAMP accumulation (SV1 H146A; [1]): 5.07 ± 0.08 | Emax of cAMP accumulation (SV1 H146A; [2]): 101.06 ± 4.83 % WT GHRHR | ΔLog (τ/KA) (SV1 H146A; [3]): -4.64 ± 0.11 | Emax (GHRHR F85A; [4]): 100 ± 1.69% | ΔLog (τ/KA) (GHRHR F85A; [5]): -0.27 ± 0.04 | Emax (GHRHR Δ62; [4]): 104 ± 2.19% | ΔLog (τ/KA) (GHRHR Δ62; [5]): -3.05 ± 0.03 | cAMP responses after removal of the N-terminal 89 residues (GHRHR Δ89; HEK293T, Fig. 1B): diminished cAMP responses | Emax (GHRHR Δ89; HEK-293T, Table S2, HEK293T, mean ± SEM, n = 3-5 in quadruplicate): 106 ± 2.48% | ΔLog (τ/KA) (GHRHR Δ89; Table S2, operational model, τ corrected by cell surface expression, relative to WT GHRHR, mean ± SEM): -3.28 ± 0.03
